Structures are written as SMILES. “And” between values parts separate entries of the source, which are not always exact repeats. Equal entries are not always repeated.

Consider three molecules from PubChem BioAssay AID1963443 (Molecular Pharmacology Branch, DTP, NCI, 2024).

In this test the test system is MDA-MB-231 complex spheroids, growth inhibition. In words: Anticancer human tumor MDA-MB-231 cell line growth inhibition [Asc].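 As to all read-outs here: spheroids exposed to compounds for 7 days.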 The note with it: for viability, T/C: stronger effect = lower value; for IC50: curve of compound. The essentials:
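Concentration series start at each agent's clinical Cmax, or at 10 microM when none is established, and drop in half-log steps; agents are applied alone or together to complex spheroids built with HUVEC and hMSC.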

As to `COc1c(OCCCN2CCOCC2)ccc2c3n(c(=NC(=O)c4cnc(N)nc4)nc12)CCN3`, the IC50 (commonly the concentration at which inhibition is half-maximal) is 82.5 nM and 91.6 nM and 226 nM. In addition, the viability, T/C (as a rule, the result in the treated group divided by that in the control group, in per cent) (compound 0.00316 µM) is 83.7% and 92% and 96.1%. Further, the viability, T/C (compound 0.01 µM) was 85.2% and 80.5% and 92.2%. Moreover, the viability, T/C (compound 0.0316 µM) is 64.8% and 66.8% and 75.9%. The viability, T/C (compound 0.1 µM) is 47.6% and 48.4% and 60%. Also, the viability, T/C (compound 0.316 µM) was 36.6% and 36.7% and 45.5%. Also, the viability, T/C (compound 1 µM) is 32% and 32.1% and 41.6%.
`O=C(c1ccc(F)c(F)c1Nc1ccc(I)cc1F)N1CC(O)([C@@H]2CCCCN2)C1`: the IC50 is 37 nM and 83.1 nM and 13.6 nM. Further, the viability, T/C (compound 0.00316 µM) was 86.9% and 79.8% and 88.6%. The viability, T/C (compound 0.01 µM) is 56.7% and 67.7% and 55.5%. In addition, where the note is “compound 0.0316 µM”, the viability, T/C was 47.7% and 58.3% and 33.5%. Further, for the setting “compound 0.1 µM”, the viability, T/C is 43.8% and 50.7% and 21.9%. For the setting “compound 0.316 µM”, the viability, T/C is 29.6% and 30.4% and 22.2%. Where the note is “compound 1 µM”, the viability, T/C is 2.86% and 5.09% and 7.27%.
For `C#Cc1c(F)ccc2cc(O)cc(-c3ncc4c(N5CC6CCC(C5)N6)nc(OCC56CCCN5CC(F)C6)nc4c3F)c12` (stereo unspecified), the IC50 is 2170 nM and > 10000 nM. Further, the viability, T/C (compound 0.0316 µM) is 120% and 100% and 106%. Further, the viability, T/C (compound 0.1 µM) was 95.9% and 97.5% and 97.1%. In addition, the viability, T/C (compound 0.316 µM) was 111% and 98.8% and 91.7%. For the setting “compound 1 µM”, the viability, T/C is 66.2% and 72.6% and 72.7%. Moreover, for the setting “compound 3.16 µM”, the viability, T/C was 48.7% and 64.1% and 62.1%. In addition, where the note is “compound 10 µM”, the viability, T/C was 35.2% and 51.7% and 50.2%.
